Assay results: ChEMBL document CHEMBL1201862, “PubChem BioAssay data set” (2004)
The source made the active and inactive calls.

Tests used:
[1] = molecular target: T1, Oxysterols receptor LXR-beta (Homo sapiens, UniProt P55055); assay type: functional, cell-based;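 also: Cell-based luminescence dose-response assay of agonist activity at LXR, run as a confirmatory counterscreen to a daf-12 agonist screen; HEK293 cells with Gal4-LXR fusion and GAL4-driven luciferase reporter; agonist potency from rising luciferase signal of a Gal4-LXR reporter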
T1 sequence (P55055 whole entry): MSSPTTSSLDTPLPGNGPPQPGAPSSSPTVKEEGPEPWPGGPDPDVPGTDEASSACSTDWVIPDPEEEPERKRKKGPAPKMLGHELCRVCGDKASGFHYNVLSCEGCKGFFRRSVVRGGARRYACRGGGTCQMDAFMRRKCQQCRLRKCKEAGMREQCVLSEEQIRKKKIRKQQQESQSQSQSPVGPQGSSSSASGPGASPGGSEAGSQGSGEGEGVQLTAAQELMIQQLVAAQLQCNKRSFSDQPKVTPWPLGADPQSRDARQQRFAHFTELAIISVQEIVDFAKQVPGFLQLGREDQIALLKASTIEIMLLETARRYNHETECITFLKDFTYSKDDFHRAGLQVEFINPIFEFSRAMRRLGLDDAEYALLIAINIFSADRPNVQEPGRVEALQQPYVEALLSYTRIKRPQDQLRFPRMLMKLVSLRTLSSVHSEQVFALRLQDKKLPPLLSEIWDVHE

BJ [2] = assay: BJ-TERT fibroblast viability loss – cell-based, RAS-independent, luminescence, dose response (AID 1933); assay type: functional; conditions: Homo sapiens
[3] = luciferase reporter signal reduction – luminescence, H4-C neuroglioblastoma cells, dose response (AID 2458); assay type: functional, cell-based;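 also: H4 neuroglioblastoma cells stably carrying a luciferase reporter gene fusion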
[4] = loss of viability in HepG2 cells – cell-based, CellTiter-Glo, cherry-picked, cytotoxicity control for Shn3 inhibitor project, dose response (AID 624134); assay type: functional
[5] = alpha-synuclein stem-loop luciferase translation blockers – H4 neuroglioma cells, luminescence, confirmation (AID 1988); assay type: functional, cell-based
BJ [6] = assay: cells; assay type: functional, cell-based; conditions: Homo sapiens
[7] = reduction of Shn3 3'UTR-driven luciferase in osteoblasts – cell-based, Clone20 osteoblasts, firefly luciferase, cherry-picked, dose response (AID 624132); assay type: functional;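 also: firefly luciferase luminescence from reporter carrying the Shn3 3'UTR in osteoblasts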
cells [8] = assay: cells
BJ [9] = assay: BJ-TERT-LT-ST fibroblast viability loss – cell-based, RAS-independent, luminescence, dose response (AID 1935); assay type: functional; conditions: Homo sapiens;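 also: BJ fibroblasts immortalized with TERT plus LT and ST oncogenes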
cells [10] = assay type: functional, cell-based
[11] = DRD fibroblast viability loss – cell-based, non-viral oncogenic, luminescence, dose response (AID 1934); assay type: functional; conditions: Homo sapiens
Paired box protein Pax-8 = Paired box protein Pax-8 (Homo sapiens, UniProt Q06710); assay: PAX8 transcriptional activity inhibition in RMG-I – RMG-I cells, luciferase, cherry-pick, dose response (AID 687027); assay type: functional, cell-based;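 also: luciferase reporter driven by Pax8 target thyroperoxidase promoter measured by SteadyGlo luminescence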
Paired box protein Pax-8, sequence (Q06710 whole entry): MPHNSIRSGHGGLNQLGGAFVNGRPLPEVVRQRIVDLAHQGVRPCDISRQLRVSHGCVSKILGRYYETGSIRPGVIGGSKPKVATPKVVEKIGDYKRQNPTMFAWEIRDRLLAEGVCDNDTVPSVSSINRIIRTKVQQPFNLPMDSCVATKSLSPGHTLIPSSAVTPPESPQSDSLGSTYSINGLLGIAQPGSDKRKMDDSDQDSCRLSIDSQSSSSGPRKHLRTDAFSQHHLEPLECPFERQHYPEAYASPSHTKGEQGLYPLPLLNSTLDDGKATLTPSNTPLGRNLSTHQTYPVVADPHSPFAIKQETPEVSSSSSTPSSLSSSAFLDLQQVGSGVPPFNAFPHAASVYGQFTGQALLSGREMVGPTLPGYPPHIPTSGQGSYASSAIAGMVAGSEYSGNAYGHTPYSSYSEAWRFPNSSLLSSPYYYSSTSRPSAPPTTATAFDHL

[12] = HEK-293T viability loss, compound-treated – cell-based, uHTS hits, cytotoxicity control for B/T-cell NF-kB inhibitor project, dose response (AID 489019); assay type: functional;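 also: IC50 reflects cytotoxicity as loss of cell viability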
[13] = luciferase reporter signal suppression in cells – H4 neuroglioma cells, luminescence, dose response (AID 1990); assay type: functional, cell-based
[14] = Luminescence Cell-Based Dose Confirmation HTS to Identify Inhibitors of Platelet Dense Granule Release. [Related pubchem assays: 1663 (Primary HTS), 1678 (Summary of Project)]; assay type: functional
Jurkat = assay: blockers of NF-kB activation in T cells – Jurkat, luciferase reporter, luminescence, B- and T-cell, dose response (AID 489004); assay type: functional, cell-based; conditions: Homo sapiens;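 also: NF-kB luciferase reporter Jurkat cells stimulated with PMA plus ionomycin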
[15] = Luminescence Cell-Based Dose Response HTS to Identify Inhibitors of 5'UTR Stem-Loop Driven Prion Protein mRNA Translation in H4 Neuroglioblastoma Cells. [Related pubchem assays: 1827 (Project Summary), 1813 (Primary HTS)]; assay type: functional
[16] = general cell-killing toxicity readout – plate reader, dry powder samples, cytotoxicity control for PAX8 inhibitor project, dose response (AID 743021); assay type: functional, cell-based
[17] = molecular target: Luciferin 4-monooxygenase (Photinus pyralis, UniProt P08659); assay: inhibition of purified Photinus pyralis luciferase – biochemical, luminescence, dose response (AID 1891)
Luciferin 4-monooxygenase, sequence (P08659 whole entry): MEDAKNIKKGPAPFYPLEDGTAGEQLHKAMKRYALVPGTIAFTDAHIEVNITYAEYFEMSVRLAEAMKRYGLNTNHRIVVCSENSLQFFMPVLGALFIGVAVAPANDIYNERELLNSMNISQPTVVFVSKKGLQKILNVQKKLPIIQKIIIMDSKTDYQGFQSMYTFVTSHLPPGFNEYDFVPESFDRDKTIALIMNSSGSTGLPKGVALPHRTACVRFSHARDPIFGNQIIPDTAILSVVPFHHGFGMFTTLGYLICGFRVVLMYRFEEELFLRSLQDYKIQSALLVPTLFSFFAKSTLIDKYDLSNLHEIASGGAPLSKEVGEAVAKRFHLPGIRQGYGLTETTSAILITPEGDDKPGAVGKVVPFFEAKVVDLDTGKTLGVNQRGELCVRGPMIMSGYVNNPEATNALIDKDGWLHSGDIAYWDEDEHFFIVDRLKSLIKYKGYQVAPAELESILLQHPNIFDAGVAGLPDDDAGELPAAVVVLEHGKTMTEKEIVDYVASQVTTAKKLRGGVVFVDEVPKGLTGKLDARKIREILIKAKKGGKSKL

[18] = alpha-synuclein stem-loop translation blockers – luminescence, H4 neuroglioblastoma cells, dose confirmation, confirmation (AID 2454); assay type: functional, cell-based;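 also: H4 neuroglioblastoma cells carrying an alpha-synuclein 5'UTR luciferase reporter; potency for inhibition of the luciferase signal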
[19] = molecular target: Acyl-homoserine lactone acylase PvdQ (Pseudomonas aeruginosa (strain LESB58), UniProt Q9I194); assay: PvdQ acylase enzyme activity blockers – biochemical, fluorescence, plate reader and imaging, cherry-picks, dose response (AID 493231)
Acyl-homoserine lactone acylase PvdQ, sequence (Q9I194 24-193 limits assumed): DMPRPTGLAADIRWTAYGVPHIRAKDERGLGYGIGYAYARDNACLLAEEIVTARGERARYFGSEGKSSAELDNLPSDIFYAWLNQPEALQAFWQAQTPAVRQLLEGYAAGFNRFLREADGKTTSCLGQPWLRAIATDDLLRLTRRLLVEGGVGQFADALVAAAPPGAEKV
Acyl-homoserine lactone acylase PvdQ, sequence (Q9I194 217-762 limits assumed): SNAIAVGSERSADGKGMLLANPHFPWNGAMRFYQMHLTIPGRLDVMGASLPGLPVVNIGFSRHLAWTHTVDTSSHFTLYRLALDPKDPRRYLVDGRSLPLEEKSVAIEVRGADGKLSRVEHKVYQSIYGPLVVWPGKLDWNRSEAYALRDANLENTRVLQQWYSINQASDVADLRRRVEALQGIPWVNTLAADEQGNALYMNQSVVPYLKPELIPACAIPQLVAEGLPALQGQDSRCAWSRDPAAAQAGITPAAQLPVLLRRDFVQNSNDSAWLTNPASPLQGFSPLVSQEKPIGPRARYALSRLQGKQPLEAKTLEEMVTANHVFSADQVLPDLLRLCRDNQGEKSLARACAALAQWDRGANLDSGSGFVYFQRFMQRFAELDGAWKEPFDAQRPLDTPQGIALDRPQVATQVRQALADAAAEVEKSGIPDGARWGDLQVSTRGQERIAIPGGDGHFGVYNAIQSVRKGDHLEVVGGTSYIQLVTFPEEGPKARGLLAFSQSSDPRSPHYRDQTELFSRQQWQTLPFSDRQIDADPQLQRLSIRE

[20] = molecular target: Cyclin-dependent kinase 5/CDK5 activator 1 (Homo sapiens, UniProt Q00535); assay: blockade of human CDK5 activity – biochemical, cherry-picked samples, set 2, dose response (AID 504545)
Cyclin-dependent kinase 5/CDK5 activator 1, sequence (Q00535 whole entry): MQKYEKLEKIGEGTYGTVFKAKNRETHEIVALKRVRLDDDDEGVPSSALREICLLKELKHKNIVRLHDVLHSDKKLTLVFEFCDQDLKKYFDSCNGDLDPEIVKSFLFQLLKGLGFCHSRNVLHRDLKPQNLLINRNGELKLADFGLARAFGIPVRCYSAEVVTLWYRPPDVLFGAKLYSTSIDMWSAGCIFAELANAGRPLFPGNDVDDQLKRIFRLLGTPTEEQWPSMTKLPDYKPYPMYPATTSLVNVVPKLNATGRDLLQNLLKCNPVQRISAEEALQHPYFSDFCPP
Cyclin-dependent kinase 5/CDK5 activator 1, sequence (Q15078 whole entry, further chain): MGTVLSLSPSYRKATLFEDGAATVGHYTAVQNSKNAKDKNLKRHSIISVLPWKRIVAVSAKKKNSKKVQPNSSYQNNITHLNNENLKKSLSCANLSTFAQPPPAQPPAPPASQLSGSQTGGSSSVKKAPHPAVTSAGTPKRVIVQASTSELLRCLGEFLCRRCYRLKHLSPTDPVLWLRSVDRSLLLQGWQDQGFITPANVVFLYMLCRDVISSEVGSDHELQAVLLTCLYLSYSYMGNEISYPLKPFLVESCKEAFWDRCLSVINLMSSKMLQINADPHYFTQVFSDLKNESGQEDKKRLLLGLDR

[21] = molecular target: T2, Heat shock factor protein 1 (Mus musculus, UniProt P38532); assay: decrease of HSF1-responsive luciferase luminescence – cell-based, NIH3T3, dose retest, confirmation (AID 2382); assay type: functional;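 also: NIH3T3 fibroblasts with HSF1-driven luciferase reporter stressed by proteasome inhibitor MG132; luminescence from HSF1-driven luciferase expression after 8 hours of MG132 stress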
T2 sequence (P38532 whole entry): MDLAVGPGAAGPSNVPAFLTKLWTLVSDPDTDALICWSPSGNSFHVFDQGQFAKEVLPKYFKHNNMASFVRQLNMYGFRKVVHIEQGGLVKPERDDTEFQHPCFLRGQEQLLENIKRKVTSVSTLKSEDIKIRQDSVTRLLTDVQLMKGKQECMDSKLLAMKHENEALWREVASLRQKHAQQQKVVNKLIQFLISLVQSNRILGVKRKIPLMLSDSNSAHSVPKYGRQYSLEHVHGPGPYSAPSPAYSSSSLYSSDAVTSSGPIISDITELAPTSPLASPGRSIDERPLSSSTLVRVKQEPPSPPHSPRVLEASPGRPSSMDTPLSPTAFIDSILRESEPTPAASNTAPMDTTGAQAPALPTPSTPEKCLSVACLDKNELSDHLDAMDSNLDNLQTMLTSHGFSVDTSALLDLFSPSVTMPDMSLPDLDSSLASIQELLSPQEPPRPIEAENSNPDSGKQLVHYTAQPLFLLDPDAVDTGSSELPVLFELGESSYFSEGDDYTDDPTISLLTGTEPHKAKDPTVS

Tumor necrosis factor = Tumor necrosis factor (Homo sapiens, UniProt P01375); assay: analog potency on TNFa NF-kB signaling – cell-based, revised, SAR follow-up (AID 2337); assay type: functional
Tumor necrosis factor, sequence (P01375 whole entry, the tested form may be a part): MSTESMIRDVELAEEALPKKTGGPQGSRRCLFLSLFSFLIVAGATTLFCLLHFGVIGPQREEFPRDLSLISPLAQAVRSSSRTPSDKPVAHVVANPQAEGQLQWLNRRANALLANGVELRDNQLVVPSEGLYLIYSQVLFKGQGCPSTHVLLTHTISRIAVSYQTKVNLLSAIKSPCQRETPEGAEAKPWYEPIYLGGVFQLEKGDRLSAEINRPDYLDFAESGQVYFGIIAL

[22] = molecular target: T3, Nucleotide-binding oligomerization domain-containing protein 1 (Homo sapiens, UniProt Q9Y239); assay: blockers of NOD1 pathway activity – revised, SAR follow-up (AID 2333); assay type: functional
T3 sequence (Q9Y239 whole entry): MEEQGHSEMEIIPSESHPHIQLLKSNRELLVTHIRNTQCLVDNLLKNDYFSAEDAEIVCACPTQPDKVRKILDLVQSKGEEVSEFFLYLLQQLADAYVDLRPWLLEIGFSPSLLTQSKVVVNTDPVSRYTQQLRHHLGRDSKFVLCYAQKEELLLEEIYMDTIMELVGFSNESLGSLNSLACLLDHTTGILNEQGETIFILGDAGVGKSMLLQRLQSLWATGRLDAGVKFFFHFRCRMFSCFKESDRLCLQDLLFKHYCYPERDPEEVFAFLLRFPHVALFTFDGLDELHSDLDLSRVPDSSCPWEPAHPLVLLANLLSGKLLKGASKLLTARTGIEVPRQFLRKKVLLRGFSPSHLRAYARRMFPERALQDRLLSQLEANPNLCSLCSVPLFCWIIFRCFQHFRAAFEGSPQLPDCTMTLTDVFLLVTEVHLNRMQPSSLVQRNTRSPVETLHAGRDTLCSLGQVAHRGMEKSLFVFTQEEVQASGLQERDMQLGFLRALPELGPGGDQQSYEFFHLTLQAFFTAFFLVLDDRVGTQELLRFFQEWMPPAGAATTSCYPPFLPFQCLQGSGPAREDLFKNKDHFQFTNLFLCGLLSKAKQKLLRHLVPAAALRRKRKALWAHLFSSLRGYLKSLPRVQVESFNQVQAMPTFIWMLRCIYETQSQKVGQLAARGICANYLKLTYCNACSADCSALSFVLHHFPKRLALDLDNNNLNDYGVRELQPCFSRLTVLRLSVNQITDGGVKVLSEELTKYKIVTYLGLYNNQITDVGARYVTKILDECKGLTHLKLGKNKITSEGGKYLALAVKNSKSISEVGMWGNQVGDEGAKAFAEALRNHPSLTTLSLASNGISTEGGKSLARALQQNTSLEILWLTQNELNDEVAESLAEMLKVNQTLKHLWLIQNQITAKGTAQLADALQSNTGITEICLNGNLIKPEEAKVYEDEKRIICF

[23] = molecular target: Peroxisome proliferator-activated receptor gamma/Nuclear receptor coactivator 2 (Homo sapiens, UniProt P37231); assay type: functional;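 also: agonist potency for raising coactivator recruitment to the receptor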
[24] = molecular target: Peroxisome proliferator-activated receptor gamma/Nuclear receptor coactivator 1 (Homo sapiens, UniProt P37231); assay type: functional;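 also: agonist potency as compounds enhance coactivator SRC-1 recruitment to PPARgamma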
Peroxisome proliferator-activated receptor gamma/Nuclear receptor coactivator 1, sequence (P37231 whole entry): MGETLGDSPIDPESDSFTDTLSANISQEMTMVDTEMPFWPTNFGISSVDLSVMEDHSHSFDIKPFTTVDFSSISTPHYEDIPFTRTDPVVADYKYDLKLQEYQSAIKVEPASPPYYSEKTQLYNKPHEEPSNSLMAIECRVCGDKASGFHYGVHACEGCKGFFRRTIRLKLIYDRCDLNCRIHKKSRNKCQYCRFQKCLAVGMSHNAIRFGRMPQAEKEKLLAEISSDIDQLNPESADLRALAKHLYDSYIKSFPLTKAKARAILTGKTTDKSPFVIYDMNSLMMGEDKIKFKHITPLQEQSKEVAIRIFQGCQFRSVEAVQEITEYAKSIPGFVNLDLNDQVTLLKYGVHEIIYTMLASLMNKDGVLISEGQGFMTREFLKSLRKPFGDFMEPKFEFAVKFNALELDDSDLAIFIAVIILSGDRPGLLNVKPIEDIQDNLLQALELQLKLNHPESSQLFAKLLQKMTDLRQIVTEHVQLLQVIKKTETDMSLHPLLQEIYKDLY
Peroxisome proliferator-activated receptor gamma/Nuclear receptor coactivator 1, sequence (Q15788 whole entry, further chain): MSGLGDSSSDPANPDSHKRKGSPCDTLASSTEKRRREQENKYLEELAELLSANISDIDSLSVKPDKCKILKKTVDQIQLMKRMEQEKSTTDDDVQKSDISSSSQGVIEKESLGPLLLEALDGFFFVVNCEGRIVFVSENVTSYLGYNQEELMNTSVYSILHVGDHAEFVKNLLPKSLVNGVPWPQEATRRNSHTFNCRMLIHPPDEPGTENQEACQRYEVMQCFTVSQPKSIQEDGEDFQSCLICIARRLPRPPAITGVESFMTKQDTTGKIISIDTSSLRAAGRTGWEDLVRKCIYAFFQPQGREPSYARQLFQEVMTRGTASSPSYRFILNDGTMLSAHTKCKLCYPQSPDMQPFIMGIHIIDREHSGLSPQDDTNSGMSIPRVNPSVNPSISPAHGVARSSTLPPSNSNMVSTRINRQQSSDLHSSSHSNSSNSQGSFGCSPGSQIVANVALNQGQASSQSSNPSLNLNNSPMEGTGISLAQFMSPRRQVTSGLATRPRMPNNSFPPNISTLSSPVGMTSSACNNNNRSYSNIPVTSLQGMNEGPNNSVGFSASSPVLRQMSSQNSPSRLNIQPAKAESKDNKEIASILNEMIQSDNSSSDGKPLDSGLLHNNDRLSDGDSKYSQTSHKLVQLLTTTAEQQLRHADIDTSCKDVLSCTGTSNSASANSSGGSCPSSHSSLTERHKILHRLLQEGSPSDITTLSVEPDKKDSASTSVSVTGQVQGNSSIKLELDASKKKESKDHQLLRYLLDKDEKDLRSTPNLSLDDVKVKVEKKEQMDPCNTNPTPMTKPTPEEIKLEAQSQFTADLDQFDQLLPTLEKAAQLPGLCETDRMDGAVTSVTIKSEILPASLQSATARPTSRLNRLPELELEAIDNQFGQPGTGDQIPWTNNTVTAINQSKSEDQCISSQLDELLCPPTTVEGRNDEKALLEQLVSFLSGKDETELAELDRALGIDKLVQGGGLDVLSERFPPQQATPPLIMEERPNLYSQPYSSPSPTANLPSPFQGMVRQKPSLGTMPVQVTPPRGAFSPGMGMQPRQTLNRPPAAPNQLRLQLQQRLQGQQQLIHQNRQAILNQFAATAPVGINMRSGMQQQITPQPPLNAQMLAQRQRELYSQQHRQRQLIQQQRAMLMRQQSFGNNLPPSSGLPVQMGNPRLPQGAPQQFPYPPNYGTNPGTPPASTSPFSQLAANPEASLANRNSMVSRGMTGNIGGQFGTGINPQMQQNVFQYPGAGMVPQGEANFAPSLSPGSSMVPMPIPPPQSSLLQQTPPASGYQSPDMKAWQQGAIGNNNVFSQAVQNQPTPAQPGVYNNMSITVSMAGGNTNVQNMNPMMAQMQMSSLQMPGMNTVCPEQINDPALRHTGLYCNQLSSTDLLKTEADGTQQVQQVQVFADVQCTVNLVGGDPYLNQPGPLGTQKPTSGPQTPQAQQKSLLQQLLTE

[25] = molecular target: Photoreceptor-specific nuclear receptor (Homo sapiens, UniProt Q9Y5X4); assay type: functional;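 also: potency for compounds that break the NR2E3 corepressor complex and count as activators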
Photoreceptor-specific nuclear receptor, sequence (Q9Y5X4 whole entry): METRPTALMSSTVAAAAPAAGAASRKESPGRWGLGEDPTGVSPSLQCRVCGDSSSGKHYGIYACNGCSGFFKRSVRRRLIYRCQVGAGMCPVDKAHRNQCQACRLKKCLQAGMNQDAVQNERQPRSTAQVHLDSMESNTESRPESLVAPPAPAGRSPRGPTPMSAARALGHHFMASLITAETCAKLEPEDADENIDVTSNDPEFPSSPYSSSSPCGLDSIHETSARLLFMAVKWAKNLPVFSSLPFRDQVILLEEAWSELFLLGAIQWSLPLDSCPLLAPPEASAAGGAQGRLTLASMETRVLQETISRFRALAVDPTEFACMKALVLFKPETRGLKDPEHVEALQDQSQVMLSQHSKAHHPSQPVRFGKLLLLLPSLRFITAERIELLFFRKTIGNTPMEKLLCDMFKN

[26] = molecular target: Peroxisome proliferator-activated receptor gamma/Nuclear receptor corepressor 2 (Homo sapiens, UniProt P37231+Q9Y618); assay type: functional
[27] = molecular target: Peroxisome proliferator-activated receptor gamma/Nuclear receptor coactivator 3 (Homo sapiens, UniProt P37231); assay type: functional;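 also: agonist potency for raising coactivator recruitment to the receptor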

In the case of O=C(Nc1ccc([N+](=O)[O-])cc1)C(=O)Nc1cccc(C(=O)O)c1, the EC50 [1] was > 67.5 µM (inactive), the EC50 (BJ [2]) was 16.2 µM (active) and the EC50 [3] was 0.126 µM (active). The AC50 [4] was 56.2 µM (active), the EC50 [5] was < 0.1 µM (active) and the EC50 (BJ [6]) was 7.23 µM (active). The AC50 [7] was 4.21 µM (active), the EC50 (cells [8]) was > 67.5 µM (inactive) and the EC50 (BJ [9]) was > 75 µM (inconclusive). For the same compound, the EC50 (cells [10]) was > 12 µM (inconclusive), the EC50 [11] was 8.07 µM (active) and the AC50 (Paired box protein Pax-8) was 5 µM (active). For the same compound, the IC50 [12] was > 80 µM (inactive), the EC50 [13] was < 0.1 µM (active) and the EC50 [14] was 2.09 µM (active). For the same compound, the IC50 (Jurkat) was 1.57 µM (active), the EC50 [15] was < 0.1 µM (active) and the AC50 [16] was 5.98 µM (active). The EC50 [17] was 0.984 µM (active) and the EC50 [18] was 0.115 µM (active).
With O=C1C2C(C(=O)N1Cc1ccco1)C1C=CC2C12CC2 (stereo not given) the AC50 [19] was 2.42 µM (active).
With Cc1ccc(C(=O)ON=C(N)c2ccccn2)c(C)c1 the AC50 [20] was 11.8 µM (active), the EC50 [21] was < 0.16 µM (active) and the IC50 (Tumor necrosis factor) was 0.0706 µM (active). For the same compound, the IC50 [22] was 0.772 µM (active).
In the case of CCc1cc2cc3c(cc2nc1SCC(=O)Nc1cc(C)on1)OCO3, the EC50 [23] was > 79.4 µM (not active), the EC50 [24] was > 79.4 µM (not active) and the IC50 [25] was > 39.8 µM (not active). For the same compound, the IC50 [26] was 1.54 µM (active) and the EC50 [27] was > 79.4 µM (not active).
